Assay results taken from US6900195B2, “Manzamines for treatment of drug resistant infection” (The University of Mississippi, priority 2000, dated 2005).
In brackets after ≈: the same amount, converted by molar mass.

What was measured:
M. tuberculosis (H37Rv) = test: microbe, parasite or virus in culture; type: cell-based, Mycobacterium tuberculosis; settings: M. tuberculosis H37Rv
[1] = test system: P. falciparum D6 clone (Sierra Leone, chloroquine-sensitive); test: In vitro antimalarial activity, parasite LDH assay, D6 clone; type: cell-based, Plasmodium falciparum
[2] = test system: P. falciparum W2 clone (Indochina, chloroquine-resistant); test: In vitro antimalarial activity, parasite LDH assay, W2 clone; type: cell-based, Plasmodium falciparum
HIV-1 in human PBM cells = test: Anti-HIV activity in human PBM cells; type: cell-based; settings: Human immunodeficiency virus 1, PBMC
P. berghei [3] = test: In vivo antimalarial activity in P. berghei-infected mice; design: species or system Plasmodium berghei
Description: In Vivo Evaluation of Antimalarial Activity. (National University of Singapore by Dr. Kenny Ang, confirmation of activity at the WHO). Four-week-old, male Swiss albino mice are injected intraperitoneally with 10^7 P. berghei-infected mouse erythrocytes. On day 2 after infection, mice are treated with a single intraperitoneal injection of either the test compound or a reference drug (chloroquine or artemisinin) within a concentration range of 50 to 1,000 μmol/kg of body weight. All test compounds and reference drugs were injected as a suspension in 5% Tween 60 saline. For oral administration, the test compounds are given as a suspension in corn oil, and mice are given two consecutive doses of test compound at 100 μmol/kg on days 2 and 3 after infection. […] Control mice receive only 5% Tween 60 saline or corn oil. Survival of mice was recorded daily. Percent parasitemia is determined microscopically (magnification, ×1,000) from mouse-tail blood smears that were fixed with methanol and stained with Giemsa stain. Blood samples from individual P. berghei-infected mice were collected at various times after a single intraperitoneal treatment of 100 μmol/kg of manzamine A per kg on day 3 after infection. For transmission electron microscopy, approximately 0.5-ml blood samples are fixed with 3% glutaraldehyde in 0.1 M cacodylate buffer (pH 7.4), postfixed with 1% osmium tetroxide and 1% uranyl acetate, dehydrated in a graded ethanol series, and embedded in Spurr's resin. The resulting blocks are cut by using a Reichert-Jung Ultracut with a glass knife. Ultra thin sections were mounted on 150-mesh copper grids, stained with 1% uranyl acetate and 1% lead citrate, and examined with a JEM-100CX electron microscope. Manzamine in plasma was detected by liquid chromatography=selected reaction monitoring-mass spectrometry (LC-SRM-MS). P. berghei-infected mice will be treated with the alkaloid (100 μmol/kg intraperitoneally) on day 3 post infection. Blood samples are collected from individual mice at specific times up to 48 h posttreatment. Plasma was isolated by centrifugation and extracted with 95% acetonitrile containing 5 mM ammonium acetate. The plasma extract was filtered, and 5 μl samples are injected into a Shimadzu LC-10 AD microbore high-pressure liquid chromatograph interfaced with a Perkin-Elmer API 300 turbo-ion-spray tandem mass spectrometer. Samples are separated on a Prodigy C-18 column (30 by 1 mm, 5-μm inner diameter) by elution at 50 μl/min with 86% acetonitrile containing 5 mM ammonium acetate. Manzamine can be detected by monitoring the transition of the protonated manzamine precursor ion from the (M+H)^+ to the (M+H —H2O)^+. Peak areas for the product ion chromatograms are integrated, and concentrations are determined from a linear calibration curve for manzamine in spiked plasma. The limit of detection for the manzamines in plasma by LC-SRM-MS is 2.5 pg. Results are subjected to a nonparametric statistical assessment with a confidence interval of 99% (p<0.01) by using Analyse-it software linked to Microsoft Excel. The program uses the Mann-Whitney U test to determine significant differences between two groups of data.

[4] = test system: Plasmodium yoelii NS malaria strain; test: WHO Peters 4-day assay, Plasmodium yoelii NS in mice; type: in vivo
Excerpt: To confirm the activity of the manzamines against malaria the World Health Organization examined manzamine A against the Plasmodium yoelii NS malaria strain in mice (Peters 4-day assay-Handbook of Animal Models of Infection Chapter 92, Academic Press 1999).

T. gondii (C56 strain) = test: Survival of mice infected orally with T. gondii cysts; type: in vivo, Toxoplasma gondii
Excerpt: Toxoplasma gondii. […] Untreated infected mice in the control group started dying 10 days post infection. Mice treated with manzamine A died nine days after treatment stopped. […] FIGS. 1 and 2 provide the graphic results of this experiment. […] Treatment was begun on Day 1 following in infection and continued for 8 days.

P. berghei [5] = test: In vivo antimalarial activity in P. berghei-infected mice; design: species or system Plasmodium berghei; settings: three 50 μmoles/kg i.p. doses
[6] = Cytotoxicity in human PBM cells; settings: human
Vero cells = test: In vitro cytotoxicity to mammalian cells (neutral red)

O[C@]12C=C(c3nccc4c3[nH]c3ccccc34)[C@@H]3CCN(CCCC/C=C\CC1)C[C@@]31C[C@@H]3/C=C\CCCCN3[C@@H]12 [Manzamine A]
% Inhibition (M. tuberculosis (H37Rv); test concentration not given): 99% | MIC (M. tuberculosis (H37Rv); Mycobacterium tuberculosis, read-out: MIC): 1.56 µg/mL (≈ 2.84 µM) | IC50 ([1]; Plasmodium falciparum, D6, read-out: D6 Clone IC50): 4.5 ng/mL (≈ 0.0082 µM) | Selectivity index (SI), D6 clone ([1]; Vero TC50 relative to D6 IC50): SI = 64 | IC50 ([2]; Plasmodium falciparum, W2, read-out: W2 Clone IC50): 8 ng/mL (≈ 0.0146 µM) | Selectivity index (SI), W2 clone ([2]; Vero TC50 relative to W2 IC50): SI = 36 | EC50 (HIV-1 in human PBM cells): 12.9 µM | reduction of parasitemia (P. berghei [3]; P. berghei-infected mice, single i.p. 100 μmoles/kg, comparison 2 days after treatment): comparable reduction of parasitemia | reduction of parasitemia compared with control mice (P. berghei [3]; P. berghei-infected mice, two oral doses 100 μmoles/kg): 90% | in vivo activity against P. berghei relative to chloroquine or artemisinin (P. berghei [3]; mice): in vivo activity against P. berghei greater than chloroquine or artemisinin | ED50 ([4]; Plasmodium yoelii, 96 h): < 5 mg/kg | activity relative to Na artesunate ([4]; given orally in DMSO or carboxy-methylcellulose-based formulation): more active than Na artesunate | time of death after treatment stopped (T. gondii (C56 strain); 8 mg/kg i.p. once a day for 8 days): nine | signs or behavior during treatment (T. gondii (C56 strain); 8 mg/kg i.p. once a day for 8 days (paralysis, blindness, twirling)): no uncommon signs or behavior | survival at day 16 of infection (T. gondii (C56 strain); 8 mg/kg i.p. once a day for 8 days, all control mice had died by day 16): all the manzamine A treated mice were alive | time to death (T. gondii (C56 strain); SW mice, 10 cysts C56 orally, 8 mg/kg i.p. once a day for 8 days from day 1): significant prolongation of time to death | outcome after three doses (P. berghei [5]): curative and totally clears the parasite | IC50 [6]: 5.1 µM | Cytotoxicity TC50 (Vero cells): 290 ng/mL
